Reference: patent US20130116251A1, “Novel HSP90 Inhibitor” (Nippon Kayaku Kabushiki Kaisha, priority 2005, published 2013)
Structures can show the parent of a compound that is named as a salt. Where two headings read alike, the source gives them in different places.

Key:
rHSP90 = test: HSP90 binding assay (BIACORE SPR; inhibition of binding between rHSP90 and fixed herbimycin A); conditions: concentration inhibiting binding between rHSP90 (50 μg/mL) and fixed herbimycin A by 50%, BIACORE-X SPR; read-out: HSP90 inhibitory activity IC50
Source text: The HSP90 binding assay system is a system for detecting the change of mass as SPR signal caused by the binding between herbimycin A fixed on a sensor chip and rHSP90 by BIACORE-X, in which 17-(6-amino hexylamino)herbimycin A is fixed through a carboxyl group on the surface of the sensor chip (CM5, BIACORE) on which carboxymethyldextran has been introduced. The method was according to the protocol of BIACORE. In addition, 17-(6-aminohexylamino)herbimycin A was synthesizes as described below.
rHSP90 (Stressgen Biotechnologies Corp., Victoria, BC Canada) at 50 μg/mL was exposed for 10 seconds to the surface of the sensor chip on which herbimycin A was fixed and the SPR signal (numerical value of interaction) was detected.
After mixing rHSP90 protein (5×10^−7M (50 μg/mL)) with the triazole derivative of the present invention, the mixture was exposed for 10 seconds to the surface of the sensor chip on which herbimycin A was fixed, and the SPR signal was measured by BIACORE-X.
Next, using following formula (1), the inhibitory activity (binding inhibition rate (%)) of the compound of the present invention to the binding between rHSP90 and fixed herbimycin A was obtained.
binding inhibition rate(%)=((b−s)/b)×100 Formula (1)
wherein b is the SPR signal when the compound of the present invention is not added to the sample: s is the SPR signal when the compound of the present invention is added to the sample.

[1] = tested on: Human breast cancer cells (MCF7); test: Antiproliferative activity on MCF7 cells (methylene blue method); type: cell-based; conditions: read-out: Antiproliferative activity IC50
Description: Human breast cancer cells (MCF7) were treated with samples of various concentrations of known HSP90 inhibitors (that is, geldanamycin, herbimycin, radicicol and PU3) and the compounds of the present invention for 72 hours to confirm the effect of the triazole derivatives of the present invention on the cell growth. The cell ratio after the drug treatment was evaluated by measuring 660 nm absorbance by a microplate reader (BioRad) after staining the cells with the methylene blue method.
Cells were distributed to wells of 96 well plates at 2000 cells per well and treated with drugs 24 hours later. Further, the medium was removed 72 hours later and the cells were fixed by adding 50 μl of methanol and standing at room temperature for 2 minutes. After removing methanol, 100 μl of a staining solution was added and stained for 30 minutes. After washing 3 times with 200 μl of distilled water, 3% HCl solution was added, and the 660 nm absorbance of methylene blue was measured by a microplate reader (BioRad).
Next, the antiproliferative activity rate (%) was obtained by the formula (2) below.
Antiproliferative activity rate(%)=((B−A)/B)×100 Formula (2)
wherein B is 660 nm absorbance of the sample when the compound of the present invention is not added, and A is 660 nm absorbance of the sample when the compound of the present invention is added.
From the concentration of the triazole derivative of the present invention and the antiproliferative activity rate, the concentration was obtained using the above formula, at which the cell growth was suppressed by 50% by comparing with the control, and termed an IC50 value.
The antiproliferative activity rate (%) was obtained for SH-b04, SH-b05 and SH-b06 described above by a similar manner to that of the triazole derivatives of the present invention.

[2] = MCF7 cells, 72 hours treatment, 660 nm absorbance after methylene blue staining
[3] = Homo sapiens, MCF7, 72 h, MCF7 cells, 72 hours treatment, 660 nm absorbance after methylene blue staining

| Compound | IC50 (rHSP90) [nM] | IC50 [1, 2] [nM] | IC50 [1, 3] [nM] | IC50 ([1]; Homo sapiens, MCF7, 72 h) [nM] |
| --- | --- | --- | --- | --- |
| 4-bromo-6-{5-methylsulfanyl-4-[4-(morpholin-4-yl)-phenyl]-4H-[1,2,4]triazol-3-yl}-benzene-1,3-diol trifluoroacetate [SMe-d01-TF] | 600 | 5500 | – | – |
| COc1cccc(-n2c(-c3cc(C(C)C)c(O)cc3O)n[nH]c2=O)c1 [OH-a09, 5-(2,4-dihydroxy-5-isopropyl-phenyl)-4-(3-methoxy-phenyl)-2,4-dihydro-[1,2,4]triazol-3-one] | 160 | – | 6.7 | – |
| COc1ccc(-n2c(-c3cc(C(C)C)c(O)cc3O)n[nH]c2=O)cc1OC [OH-a10, 5-(2,4-dihydroxy-5-isopropyl-phenyl)-4-(3,4-dimethoxy-phenyl)-2,4-dihydro-[1,2,4]triazol-3-one] | – | – | 14 | – |
| CC(C)c1cc(-c2n[nH]c(=O)n2-c2ccc(C(=O)O)cc2)c(O)cc1O [OH-a12, 4-[3-(2,4-dihydroxy-5-isopropylphenyl)-5-oxo-1,5-dihydro-[1,2,4]triazol-4-yl]-benzoic acid] | 190 | – | > 20000 | – |
| CC(C)c1cc(-c2n[nH]c(=O)n2-c2ccc(C(=O)N3CCOCC3)cc2)c(O)cc1O [OH-a14] | 190 | – | 720 | – |
| CC(C)c1cc(-c2n[nH]c(=O)n2-c2cnc(N3CCOCC3)nc2)c(O)cc1O [OH-a17, 5-(2,4-dihydroxy-5-isopropyl-phenyl)-4-[2-(molpholin-4-yl)-pyrimidin-5-yl]-2,4-dihydro-[1,2,4]triazol-3-one] | 220 | – | 26 | – |
| CC(C)c1cc(-c2n[nH]c(=O)n2N2CCCCC2)c(O)cc1O [OH-a24•TFA, 5-(2,4-dihydroxy-5-isopropyl-phenyl)-4-piperidin-1-yl-2,4-dihydro-[1,2,4]triazol-3-one] | 1100 | – | 790 | – |
| CC(C)c1cc(-c2n[nH]c(=O)n2CCN2CCOCC2)c(O)cc1O [OH-a26•HCl, 5-(2,4-dihydroxy-5-isopropyl-phenyl)-4-(2-morpholin-4-yl-ethyl)-2,4-dihydro-[1,2,4]triazol-3-one] | 180 | – | 600 | – |
| CC(C)c1cc(-c2n[nH]c(=O)n2CCCN2CCOCC2)c(O)cc1O [OH-a27, 5-(2,4-dihydroxy-5-isopropyl-phenyl)-4-[3-(molpholin-4-yl)-propyl]-2,4-dihydro-[1,2,4]triazol-3-one] | 240 | – | 220 | – |
| CC(C)c1cc(-c2n[nH]c(=O)n2CCCN2CCCC2=O)c(O)cc1O [OH-a30, 5-(2,4-dihydroxy-5-isopropyl-phenyl)-4-[3-(2-oxo-pyrrolidin-1-yl)propyl]-2,4-dihydro-[1,2,4]triazol-3-one] | 140 | – | 1100 | – |
| COCCn1c(-c2cc(C(C)C)c(O)cc2O)n[nH]c1=O [OH-a32, 5-(2,4-dihydroxy-5-isopropyl-phenyl)-4-(2-methoxy-ethyl)-2,4-dihydro-[1,2,4]triazol-3-one] | 350 | – | 390 | – |
| CC(C)c1cc(-c2n[nH]c(=O)n2C(CO)CO)c(O)cc1O [OH-a33, 5-(2,4-dihydroxy-5-isopropyl-phenyl)-4-(2-hydroxy-1-hydroxymethyl-ethyl)-2,4-dihydro-[1,2,4]triazol-3-one] | 370 | – | 3300 | – |
| CC#CCc1cc(-c2n[nH]c(=O)n2-c2ccc(CN3CCOCC3)cc2)c(O)cc1O [OH-c02, 5-[5-(but-2-ynyl)-2,4-dihydroxy-phenyl]-4-[4-(morpholin-4-ylmethyl)-phenyl]-2,4-dihydro-[1,2,4]triazol-3-one] | 220 | – | 140 | – |
| C#CCc1cc(-c2n[nH]c(=O)n2-c2ccc(CN3CCOCC3)cc2)c(O)cc1O [OH-e02, 5-[2,4-dihydroxy-5-(prop-2-ynyl)-phenyl]-4-[4-(morpholin-4-ylmethyl)-phenyl]-2,4-dihydro-[1,2,4]triazol-3-one] | 150 | – | 240 | – |
| CCCCn1c(Cc2cc(OC)c(OC)c(OC)c2)nc2c(N)ncnc21 [PU3, reference compound] | – | 91000 | – | – |
| CC(C)c1cc(-c2nnc(S(=O)(=O)CCCN(C)C)n2-c2ccc(O)cc2)c(O)cc1O [SFN2-a11•TFA, 4-[5-(3-dimethylamino-propylsulfonyl)-4-(4-hydroxy-phenyl)-4H-[1,2,4]triazol-3-yl]-6-isopropyl-benzene-1,3-diol] | 430 | – | 98 | – |
| CC(C)c1cc(-c2nnc(S(=O)(=O)CCCN(C)C)n2C(C)C)c(O)cc1O [SFN2-a21•TFA] | 1000 | – | 5200 | – |
| CC(C)c1cc(-c2nnc(S(=O)(=O)CCCN3CCCCC3)n2C(C)C)c(O)cc1O [SFN3-a21•TFA, 4-isopropyl-6-[4-isopropyl-5-(3-piperidine-1-yl-propane-1-sulfonyl)-4H-[1,2,4]triazol-3-yl]-benzene-1,3-diol] | 1400 | – | 4100 | – |
| COc1ccc(-n2c(-c3cc(C(C)C)c(O)cc3O)nnc2S(=O)(=O)Cc2cccnc2)cc1 [SFN4-a08, 4-isopropyl-6-[4-(4-methoxy-phenyl)-5-(pyridin-3-ylmethanesulfonyl)-4H-[1,2,4]triazol-3-yl]-benzene-1,3-diol] | 230 | – | 9900 | – |
| COc1ccc(-n2c(-c3cc(C(C)C)c(O)cc3O)nnc2S(=O)(=O)Cc2ccc[n+]([O-])c2)cc1 [SFN5-a08, 4-isopropyl-6-[4-(4-methoxy-phenyl)-5-(1-oxy-pyridin-3-ylmethanesulfonyl)-4H-[1,2,4]triazol-3-yl]-benzene-1,3-diol] | 430 | – | 3900 | – |
| COc1ccc(-n2c(-c3cc(C(C)C)c(O)cc3O)nnc2S(=O)(=O)CC(=O)N(C)C)cc1 [SFN6-a08, 2-[5-(2,4-dihydroxy-5-isopropyl-phenyl)-4-(4-methoxy-phenyl)-4H-[1,2,4]triazol-3-sulfonyl]-N,N-dimethyl-acetamide] | 580 | – | 550 | – |
| COc1ccc(-n2c(-c3cc(C(C)C)c(O)cc3O)nnc2S(=O)(=O)CC2CCCCO2)cc1 (centres unmarked) [SFN7-a08, 4-isopropyl-6-[4-(4-methoxy-phenyl)-5-(tetrahydro-pyran-2-ylmethanesulfonyl)-4H-[1,2,4]triazol-3-yl]-benzene-1,3-diol] | 720 | – | 720 | – |
| COCCOCCS(=O)(=O)c1nnc(-c2cc(C(C)C)c(O)cc2O)n1-c1ccc(OC)cc1 [SFN8-a08, 4-isopropyl-6-{5-[2-(2-methoxy-ethoxy)-ethanesulfonyl]-4-(4-methoxy-phenyl)-4H-[1,2,4]triazol-3-yl}-benzene-1,3-diol] | 600 | – | 2400 | – |
| CC(C)c1cc(-c2nnc(S(C)(=O)=O)n2CCN2CCOCC2)c(O)cc1O [SFN-a26, 4-isopropyl-6-[5-methanesulfonyl-4-(2-molpholin-4-ylethyl)-4H-[1,2,4]triazol-3-yl]-benzene-1,3-diol] | – | – | > 20000 | – |
| Oc1cc(O)c(-c2n[nH]c(=S)n2-c2ccc(N3CCOCC3)cc2)cc1Br [SH-d01, 4-bromo-6-{5-mercapto-4-[4-(morpholin-4-yl)-phenyl]-4H-[1,2,4]triazol-3-yl}-benzene-1,3-diol] | – | – | 580 | – |
| COc1ccc(-n2c(SC)nnc2-c2cc(C(C)C)c(O)cc2O)cc1 [SMe-a08, 4-isopropyl-6-[4-(4-methoxy-phenyl)-5-methylsulfanyl-4H-[1,2,4]triazol-3-yl]-benzene-1,3-diol] | – | – | 3100 | – |
| COC1=C2C[C@@H](C)C[C@H](OC)[C@H](O)[C@@H](C)/C=C(\C)[C@H](OC(N)=O)[C@@H](OC)/C=C\C=C(/C)C(=O)NC(=CC1=O)C2=O [geldanamycin, reference compound] | – | – | 12 | – |
| CO[C@H]1[C@@H](OC)C[C@H](C)[C@@H](OC)C2=CC(=O)C=C(NC(=O)/C(C)=C/C=C\[C@H](OC)[C@@H](OC(N)=O)/C(C)=C/[C@@H]1C)C2=O [herbimycin, reference compound] | – | – | – | 160 |
| C[C@@H]1C[C@H]2O[C@@H]2/C=C\C=C\C(=O)Cc2c(Cl)c(O)cc(O)c2C(=O)O1 [radicicol, reference compound] | – | – | 19 | – |
